Converted amounts (≈) assume the structure as drawn. Like-named read-outs stand apart in the source and are kept apart here. Marks after values point to notes of the source that are not given here.

The results in this text go back to patent publication US20230014447A1 (priority 2019, published 2023).

The test system of the assay is Legionella pneumophila MMX 7515. The experiment in a line: microbe, parasite or virus in culture. Format: cell-based. The following applies: for MIC: Legionella pneumophila.
Setting [1] is: MMX7515, 24 h, read-out: MIC (in vitro activity).
Where [2] appears, read: MMX7515, 48 h, read-out: MIC (in vitro activity).

Turning to `C=C(C)C1CCC(C)=CC1c1c(O)cc(CCCCC)cc1O` (centres unmarked) [CBD, 2-[3-methyl-6-(1-methylethenyl)-2-cyclohexen-1-yl]-5-pentyl-1,3-benzenediol], the MIC runs as follows: under setting [1], 1 µg/mL (≈ 3.18 µM); under setting [2], 1 µg/mL (≈ 3.18 µM); (MMX7515, read-out: MIC values) 1 µg/mL (≈ 3.18 µM).
In the case of `C[C@H]1COc2c(N3CCN(C)CC3)c(F)cc3c(=O)c(C(=O)O)cn1c23` [LVX, levofloxacin], the MIC amounted to 0.5 µg/mL (≈ 1.38 µM) under setting [1] and 0.5 µg/mL (≈ 1.38 µM) under setting [2].
As for `C[C@@H](O)[C@H]1C(=O)N2C(C(=O)O)=C(S[C@@H]3CN[C@H](C(=O)N(C)C)C3)[C@H](C)[C@H]12` [MEM, meropenem], the MIC by setting is: under setting [1], 0.25 µg/mL (≈ 0.652 µM); under setting [2], 0.5 µg/mL (≈ 1.3 µM).
For `CN[C@H](CC(C)C)C(=O)N[C@H]1C(=O)N[C@@H](CC(N)=O)C(=O)N[C@H]2C(=O)N[C@H]3C(=O)N[C@H](C(=O)N[C@H](C(=O)O)c4cc(O)cc(O)c4-c4cc3ccc4O)[C@H](O)c3ccc(c(Cl)c3)Oc3cc2cc(c3O[C@@H]2O[C@H](CO)[C@@H](O)[C@H](O)[C@H]2O[C@H]2C[C@](C)(N)[C@H](O)[C@H](C)O2)Oc2ccc(cc2Cl)[C@H]1O` [VAN, vancomycin] the same measures were 0.12 µg/mL (≈ 0.0828 µM) and 0.25 µg/mL (≈ 0.173 µM).
Take gentamicin: the “MIC (in vitro activity)” value is listed as 2** μg/mL (L. pneumophila MMX 7515, plate read at 48 hr) and 1* μg/mL (Legionella pneumophila MMX 7515, plate read at 24 hr).
